Source: patent EP4603105A1, “PHARMACEUTICAL COMPOSITION CONTAINING CYCLIC COMPOUND HAVING SELECTIVE KRAS INHIBITORY EFFECT AGAINST HRAS AND NRAS” (CHUGAI SEIYAKU KABUSHIKI KAISHA, priority 2022, dated 2024)
Where two headings read alike, the source gives them in different places.

Key:
[1] = tested on: human lung cancer strain NCI-H441; test: NCI-H441 cell proliferation inhibitory activity (CellTiter-Glo, 4 days); type: cell-based; settings: read-out: NCl-H441 IC50
Procedure, shortened: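 Step one: dispense the test compound in serial DMSO dilutions. Step three: add the reagent and measure […].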

HRAS wild-type protein = HRAS wild-type protein (Homo sapiens, UniProt P01112); test: Binding to HRAS by surface plasmon resonance (SPR), KD and KD ratio to KRAS
Sequence of HRAS wild-type protein (P01112 whole entry): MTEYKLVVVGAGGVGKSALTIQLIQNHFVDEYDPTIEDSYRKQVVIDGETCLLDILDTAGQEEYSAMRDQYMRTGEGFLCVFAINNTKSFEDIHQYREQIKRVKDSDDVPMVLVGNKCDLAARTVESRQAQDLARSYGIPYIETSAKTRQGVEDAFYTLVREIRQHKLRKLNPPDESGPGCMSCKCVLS
Procedure, shortened: (§1)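 Captured GDP-RAS (~100–300 RU) was exposed to increasing compound concentrations, 75 s per step, in running buffer with 10 µM GDP, 10 mM MgCl2 and 4% DMSO at pH 7.4.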

[2] = target: GDP-bound KRAS wild-type protein (Homo sapiens, UniProt P01116); test: Binding to KRAS by surface plasmon resonance (SPR), dissociation constant KD
Sequence of GDP-bound KRAS wild-type protein (P01116 1-188 isoform P01116-2): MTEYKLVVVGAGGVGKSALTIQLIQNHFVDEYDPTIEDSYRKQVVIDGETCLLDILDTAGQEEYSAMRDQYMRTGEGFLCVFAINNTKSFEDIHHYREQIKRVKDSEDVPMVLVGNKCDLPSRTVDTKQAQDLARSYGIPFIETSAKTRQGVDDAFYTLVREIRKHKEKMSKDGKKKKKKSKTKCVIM
Procedure, shortened: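 GDP-bound biotin-Avi RAS captured at ~100–300 RU, 30°C, pH 7.4 HBS containing 10 µM GDP, 10 mM MgCl2, 1 mM DTT, 0.01% Tween 20 and 4% DMSO. KD by 1:1 fitting.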

[3] = target: GDP-bound NRAS wild-type protein (Homo sapiens, UniProt P01111); test: Binding to NRAS by surface plasmon resonance (SPR), KD and KD ratio to KRAS
Sequence of GDP-bound NRAS wild-type protein (P01111 whole entry): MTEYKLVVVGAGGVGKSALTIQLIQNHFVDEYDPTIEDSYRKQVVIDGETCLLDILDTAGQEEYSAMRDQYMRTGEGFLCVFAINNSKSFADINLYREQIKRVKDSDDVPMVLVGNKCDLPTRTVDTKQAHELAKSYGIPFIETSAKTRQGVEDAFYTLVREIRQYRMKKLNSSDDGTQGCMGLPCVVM
Procedure, shortened: as §1

[4] = ratio of KD for HRAS wild-type protein to KD for KRAS
[5] = ratio of KD for GDP-bound NRAS wild-type protein to KD for KRAS
[6] = 50% proliferation inhibitory concentration, four days
[7] = ratio of KD with respect to HRAS wild-type protein to KD with respect to KRAS
[8] = Single Cycle Kinetics, 1:1 binding model
[9] = ratio of KD with respect to GDP-bound NRAS wild-type protein to KD with respect to KRAS

IC50 ([1]; NCI-H441 cells, 4 days) [nM] | Kd ([2]; 1:1 binding model) [nM] | IC50 [1, 6] [nM] | Kd [2, 8] [nM] | Kd ([2]; Single Cycle Kinetics) [nM] | Structure (SMILES) | HRAS /KRAS (HRAS wild-type protein; [4]) | NRAS /KRAS [3, 5] | HRAS /KRAS (HRAS wild-type protein; [7]) | NRAS /KRAS [3, 9]
2.1 | 0.075 |  |  |  | CCCOC[C@H]1C(=O)N[C@@H]([C@@H](C)CC)C(=O)N(C2CC2)CC(=O)N(C)[C@H]2C/C=C\CCN(C2=O)[C@@H](Cc2ccc(C)cc2)C(=O)N(C)CC(=O)N[C@@H](CCc2ccc(C(F)(F)F)c(OC)c2)C(=O)N2C[C@@H](C)C[C@H]2C(=O)N(C)C2(CCC2)C(=O)N(C)[C@@H](C2CCCC2)C(=O)N(C)[C@H](C(=O)N(C)C)CC(=O)N1C [PP2367] | B (a compound having 3 or more and less than 10 is denoted as B) | A (a compound having 10 or more and less than 20 is denoted as A) |  | 
 |  | 5 | 0.091 |  | CC[C@H](C)[C@@H]1NC(=O)[C@H](CC2CCC2)N(C)C(=O)C[C@@H](C(=O)N(C)C)N(C)C(=O)[C@H](C2CCCC2)N(C)C(=O)C2(CCCC2)NC(=O)[C@@H]2CCCN2C(=O)[C@H](CCc2ccc(C(F)(F)F)c(Cl)c2)NC(=O)CN(C)C(=O)[C@H](Cc2ccc(C(F)(F)F)cc2)N2C[C@H](C)CC[C@@H](C2=O)N(C)C(=O)CN(C)C1=O [PP1342] |  |  | B (a compound having 3 or more and less than 10 is denoted as B) | B (a compound having 3 or more and less than 10 is denoted as B)
33.2 | 1.4 |  |  |  | CCCOC[C@H]1C(=O)N[C@@H]([C@@H](C)CC)C(=O)N2CCC[C@H]2C(=O)N(C)[C@H]2C/C=C\CCN(C2=O)[C@@H](Cc2ccc(C)cc2)C(=O)N(C)CC(=O)N[C@@H](CCc2cc(F)c(C(F)(F)F)c(F)c2)C(=O)N2C[C@H](C)C[C@H]2C(=O)NC2(CC(C)(C)C2)C(=O)N(C)[C@@H](C2CCCC2)C(=O)N(C)[C@H](C(=O)N(C)CC)CC(=O)N1C [PP2430] | A (a compound having 10 or more and less than 20 is denoted as A) | AA (a compound having 20 or more is denoted as AA) |  | 
 |  | 48.3 | 0.17 |  | CCO[C@@H]1C[C@H]2C(=O)NC3(CCC3)C(=O)N(C)[C@@H](C3CCCC3)C(=O)N(C)[C@H](C(=O)N(C)C)CC(=O)N(C)[C@@H](Cc3cccc(C#N)c3)C(=O)N[C@@H]([C@@H](C)CC)C(=O)N(C)CC(=O)N(C)[C@H]3CCCCCN(C3=O)[C@@H](Cc3ccc(C(F)(F)F)cc3)C(=O)N(C)CC(=O)N[C@@H](CCc3cc(F)c(C(F)(F)F)c(F)c3)C(=O)N2C1 [PP1172] |  |  | B (a compound having 3 or more and less than 10 is denoted as B) | B (a compound having 3 or more and less than 10 is denoted as B)
6.3 | 0.11 |  |  |  | CCCOC[C@H]1C(=O)N[C@@H]([C@@H](C)CC)C(=O)N(C)CC(=O)N(C)[C@H]2C/C=C\CCN(C2=O)[C@@H](Cc2ccc(C)cc2)C(=O)N(C)CC(=O)N[C@@H](CCc2ccc(C(F)(F)F)c(OC)c2)C(=O)N2C[C@H](OCC)C[C@H]2C(=O)NC2(CC(C)(C)C2)C(=O)N(C)[C@@H](CC(C)(C)C)C(=O)N(C)[C@H](C(=O)N(C)C)CC(=O)N1C [PP2712] | B (a compound having 3 or more and less than 10 is denoted as B) | A (a compound having 10 or more and less than 20 is denoted as A) |  | 
5.4 |  |  |  | 0.041 | CCC[C@H]1C(=O)N[C@@H]([C@@H](C)CC)C(=O)N(C)CC(=O)N(C)[C@H]2C/C=C\CCN(C2=O)[C@@H](Cc2ccc(C(F)(F)F)cc2)C(=O)N(C)CC(=O)N[C@@H](CCc2ccc(C(F)(F)F)c(Cl)c2)C(=O)N2CC3(CC3)C[C@H]2C(=O)NC2(CCC2)C(=O)N(C)[C@@H](CC(C)(C)C)C(=O)N(C)[C@H](C(=O)N(C)C)CC(=O)N1C [PP3418] | B (a compound having 3 or more and less than 10 is denoted as B) | A (a compound having 10 or more and less than 20 is denoted as A) |  | 
19.2 |  |  |  | 0.64 | CCC[C@H]1C(=O)N[C@@H]([C@@H](C)CC)C(=O)N(C2CC2)CC(=O)N(C)[C@H]2C/C(F)=C\CCN(C2=O)[C@@H](Cc2ccc(C(F)(F)F)cc2)C(=O)N(C)CC(=O)N[C@@H](CCc2cc(F)c(C(F)(F)F)c(F)c2)C(=O)N2C[C@H](OCC)C[C@H]2C(=O)NC2(CCC2)C(=O)N(C)[C@@H](C2CCCC2)C(=O)N(C)[C@H](C(=O)N(C)C)CC(=O)N1C [PP3518] | B (a compound having 3 or more and less than 10 is denoted as B) | B (a compound having 3 or more and less than 10 is denoted as B) |  | 
71.7 |  |  |  | 1.4 | CCO[C@@H]1C[C@H]2C(=O)NC3(CC(C)(C)C3)C(=O)N(C)[C@@H](C3CCCC3)C(=O)N(C)[C@H](C(=O)N(C)CC)CC(=O)N(C)[C@@H]([C@H](C)OC)C(=O)N[C@@H]([C@@H](C)CC)C(=O)N3CCC[C@H]3C(=O)N(C)[C@H]3C/C=C\CCN(C3=O)[C@@H](Cc3ccc(C(F)(F)F)cc3)C(=O)N(C)CC(=O)N[C@@H](CCc3ccc(C(F)(F)F)c(OC)c3)C(=O)N2C1 [PP3222] | A (a compound having 10 or more and less than 20 is denoted as A) | A (a compound having 10 or more and less than 20 is denoted as A) |  | 
42.3 | 0.58 |  |  |  | CCCOC[C@H]1C(=O)N[C@@H]([C@@H](C)CC)C(=O)N(C)CC(=O)N(C)[C@H]2C/C=C\CCN(C2=O)[C@@H](CC2CCC(F)(F)CC2)C(=O)N(C)CC(=O)N[C@@H](CCc2cc(F)c(C(F)(F)F)c(F)c2)C(=O)N2C[C@H](OCC)C[C@H]2C(=O)NC2(CC(C)(C)C2)C(=O)N(C)[C@@H](C(CC)CC)C(=O)N(C)[C@H](C(=O)N(C)C)CC(=O)N1C [PP2472] | A (a compound having 10 or more and less than 20 is denoted as A) | A (a compound having 10 or more and less than 20 is denoted as A) |  | 
29.3 |  |  |  | 0.86 | C=C(C)C[C@H]1C(=O)N(C)[C@H](C(=O)N(C)C)CC(=O)N(C)[C@@H](CCC)C(=O)N[C@@H]([C@@H](C)CC)C(=O)N(C)CC(=O)N(C)[C@H]2C/C=C\CCN(C2=O)[C@@H](Cc2ccc(C(F)(F)F)cc2)C(=O)N(C)CC(=O)N[C@@H](CCc2ccc(C(F)(F)F)c(OC)c2)C(=O)N2C[C@H](OCC)C[C@H]2C(=O)N(C)C2(CCC2)C(=O)N1C [PP3332] | B (a compound having 3 or more and less than 10 is denoted as B) | A (a compound having 10 or more and less than 20 is denoted as A) |  | 
69.9 |  |  |  | 0.81 | CCO[C@@H]1C[C@H]2C(=O)NC3(CC(C)(C)C3)C(=O)N(C)[C@@H](C3CCCC3)C(=O)N(C)[C@H](C(=O)N(C)CC)CC(=O)N(C)[C@@H]([C@@H](C)OC)C(=O)N[C@@H]([C@@H](C)CC)C(=O)N3CCC[C@H]3C(=O)N(C)[C@H]3C/C=C\CCN(C3=O)[C@@H](Cc3ccc(C(F)(F)F)cc3)C(=O)N(C)CC(=O)N[C@@H](CCc3cc(F)c(C(F)(F)F)c(F)c3)C(=O)N2C1 [PP3172] | A (a compound having 10 or more and less than 20 is denoted as A) | AA (a compound having 20 or more is denoted as AA) |  | 
24.2 | 0.17 |  |  |  | CCOC[C@H]1C(=O)N[C@@H]([C@@H](C)CC)C(=O)N(C)CC(=O)N(C)[C@H]2C/C=C\CCN(C2=O)[C@@H](Cc2ccc(C(F)(F)F)cc2)C(=O)N(C)CC(=O)N[C@@H](CCc2ccc(Cl)c(Cl)c2)C(=O)N2C[C@H](OCC)C[C@H]2C(=O)NC2(CC(C)(C)C2)C(=O)N(C)[C@@H](CC(C)(C)C)C(=O)N(C)[C@H](C(=O)N(C)C)CC(=O)N1C [PP2740] | A (a compound having 10 or more and less than 20 is denoted as A) | AA (a compound having 20 or more is denoted as AA) |  | 
